Reference: patent US11478459B2, “Pharmaceutical preparation” (Merck Patent GmbH, priority 2017, dated 2022)
Converted amounts (≈) assume the structure as drawn. Read-outs that look alike come from different tables or passages of the source.

Test: Solubility of the Compound in water, biorelevant media (FaSSIF, FeSSIF) and oils
Format: physicochemical

| SMILES | solubility (FaSSIF, as restated in Example 5, read-out: solubility of the Compound in FaSSIF) | DCS classification (Butler and Dressman, 2010) | solubility (FaSSIF, read-out: solubility in Fasted Simulated Intestinal Fluid (FaSSIF)) | solubility (FeSSIF, read-out: solubility in FedState Simulated Intestinal Fluid (FeSSIF)) | dose/solubility ratio (estimated efficacious human dose of >100 mg) | solubility in the tested oils (in words) | solubility in water and biorelevant media (in words) |
| --- | --- | --- | --- | --- | --- | --- | --- |
| COc1cc2ncc3c(c2cc1-c1cnn(C)c1)n(-c1ccc(C#N)cc1F)c(=O)n3C [Compound, 3-Fluoro-4-[7-methoxy-3-methyl-8-(1-methyl-1H-pyrazol-4-yl)-2-oxo-2,3-dihydro-imidazo[4,5-c]quinolin-1-yl]-benzonitrile] | ~0.25 µg/mL (≈ 0.584 µM) | – | – | – | – | – | – |
| COc1cc2ncc3c(c2cc1-c1cnn(C)c1)n(-c1ccc(C#N)cc1F)c(=O)n3C [3-Fluoro-4-[7-methoxy-3-methyl-8-(1-methyl-1H-pyrazol-4-yl)-2-oxo-2,3-dihydro-imidazo[4,5-c]quinolin-1-yl]-benzonitrile] | – | DCS IIb | 0.25 µg/mL (≈ 0.584 µM) | 1 µg/mL (≈ 2.33 µM) | at least 100,000 | low solubility | very low solubility |
